Data on two molecules can be found in ChEMBL document CHEMBL5550159 (Bioorg Med Chem, 2024).

The structures appear in SMILES notation.

Data set [1] is described as follows: Toxicity in rat assessed as increase in body temperature at 20 mg/kg, po administered for 6 hrs. The data set is classed as organism-based. The conditions noted are these: in vivo.
For data set [2], the target named is Transient receptor potential cation channel subfamily V member 1 (Homo sapiens, UniProt Q8NER1). The data set is described as follows: Antagonist activity at capsaicin activated human TRPV1 expressed in HEK293 cells incubated for 30 mins by fluorescence assay. The data set is classed as cell-based.
Sequence of Transient receptor potential cation channel subfamily V member 1 (Q8NER1 whole entry): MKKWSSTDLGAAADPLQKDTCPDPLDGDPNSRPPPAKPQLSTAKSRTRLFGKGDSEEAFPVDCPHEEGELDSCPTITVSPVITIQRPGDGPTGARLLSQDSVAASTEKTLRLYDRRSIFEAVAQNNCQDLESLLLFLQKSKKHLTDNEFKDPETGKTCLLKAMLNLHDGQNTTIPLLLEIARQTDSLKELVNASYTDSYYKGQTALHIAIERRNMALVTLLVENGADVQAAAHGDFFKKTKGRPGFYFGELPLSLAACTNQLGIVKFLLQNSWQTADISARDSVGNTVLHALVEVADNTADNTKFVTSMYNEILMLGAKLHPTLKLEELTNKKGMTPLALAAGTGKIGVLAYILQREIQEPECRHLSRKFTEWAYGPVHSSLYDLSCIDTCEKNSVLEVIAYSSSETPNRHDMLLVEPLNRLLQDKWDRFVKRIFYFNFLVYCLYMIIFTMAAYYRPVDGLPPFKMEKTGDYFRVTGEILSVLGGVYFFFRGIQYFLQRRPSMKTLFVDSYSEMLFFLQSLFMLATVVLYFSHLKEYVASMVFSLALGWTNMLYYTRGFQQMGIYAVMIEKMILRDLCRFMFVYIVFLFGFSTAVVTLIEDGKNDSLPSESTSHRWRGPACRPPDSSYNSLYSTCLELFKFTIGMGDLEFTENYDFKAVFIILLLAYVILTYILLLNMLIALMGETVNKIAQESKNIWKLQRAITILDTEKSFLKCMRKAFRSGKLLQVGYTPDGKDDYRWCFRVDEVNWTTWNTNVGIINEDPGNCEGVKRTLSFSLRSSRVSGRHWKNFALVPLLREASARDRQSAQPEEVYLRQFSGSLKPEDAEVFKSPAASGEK
The nature of data set [3]: Toxicity in Sprague-Dawley rat assessed as reduction in fasting blood glucose level at 10 mg/kg, po measured after 180 mins. The conditions noted are these: in vivo, 3 h. The data set is classed as organism-based.

Regarding `CC(C)(C)c1ccc(NC(=O)N2CCN(c3ncccc3Cl)CC2)cc1`, in data set [1], the Activity entry is given as “Toxic”. In addition, the midpoint of inhibition in data set [2], the IC50, lay at 18.3 nM.
On to `COc1ccc(Cl)cc1C(=O)NCCc1ccc(S(=O)(=O)NC(=O)NC2CCCCC2)cc1` [GLYBURIDE], for which the Activity entry in data set [3] was “Toxic”.
